Assay results as given in patent USRE44613E1, “N-substituted glycine derivatives: hydroxylase inhibitors” (GlaxoSmithKline LLC, priority 2007, dated 2013).

Tested on: Epo protein produced by Hep3B cell line
Assay: Epo protein produced by Hep3B cell line using ELISA method
Assay type: cell-based
Conditions: Homo sapiens; Hep3B cells, 48 hours incubation, DMEM without serum; maximum concentration tested 100 micromolar; range stated jointly for ELISA and AlphaLISA
Experimental: Measure Epo Protein Produced by Hep3B Cell Line Using ELISA Method.
Hep3B cells obtained from the American Type Culture Collection (ATCC) are seeded at 2×10^4 cells/well in Dulbecco's Modified Eagle Medium (DMEM)+10% FBS in 96-well plates. Cells are incubated at 37 deg C./5% CO2/90% humidity (standard cell culture incubation conditions). After overnight adherence, medium is removed and replaced with DMEM without serum containing test compound or DMSO negative control. Following 48 hours incubation, cell culture medium is collected and assayed by ELISA to quantitate Epo protein.

CC(C)(C)c1ccc(Cn2nc(-c3ccc(C(C)(C)C)cc3)c(O)c(C(=O)NCC(=O)O)c2=O)cc1 [Example 26, N-[(6-[4-(1,1-Dimethylethyl)phenyl]-2-{[4-(1,1-dimethylethyl)phenyl]methyl}-5-hydroxy-3-oxo-2,3-dihydro-4-pyridazinyl)carbonyl]glycine]
EC50: > 100 µM
